As usually defined, the EC50 is the concentration needed to bring the measured effect to its halfway point.

Among the data in ChEMBL document CHEMBL1208782, “Synthesis and pharmacological validation of a novel series of non-steroidal FXR agonists” (Bioorg Med Chem Lett, 2010) are EC50 and Efficacy values, retold here.

Molecules are shown by their SMILES.

Assay type in all cases: functional, cell-based
One assay deals with T1, Bile acid receptor (Homo sapiens, UniProt Q96RI1).
T1 sequence (Q96RI1 whole entry): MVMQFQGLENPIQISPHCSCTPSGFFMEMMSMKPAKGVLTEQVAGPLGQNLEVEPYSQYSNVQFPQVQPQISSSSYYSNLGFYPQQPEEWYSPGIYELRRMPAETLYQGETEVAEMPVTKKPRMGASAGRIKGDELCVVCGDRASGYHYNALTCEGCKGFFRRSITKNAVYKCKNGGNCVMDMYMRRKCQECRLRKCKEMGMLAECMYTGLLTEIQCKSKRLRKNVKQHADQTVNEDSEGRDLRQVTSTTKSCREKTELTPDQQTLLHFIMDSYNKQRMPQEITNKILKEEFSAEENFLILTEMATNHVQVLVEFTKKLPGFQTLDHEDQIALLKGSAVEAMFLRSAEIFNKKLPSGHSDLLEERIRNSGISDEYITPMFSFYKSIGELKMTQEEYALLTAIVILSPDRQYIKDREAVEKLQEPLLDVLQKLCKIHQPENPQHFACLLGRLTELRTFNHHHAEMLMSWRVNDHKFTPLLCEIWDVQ
Nature of the assay: Agonist activity at human full length FXR transfected in HEK293 cells coexpressing pTRexDest/pGL2promotor assessed as luciferase activity by direct reporter cellular assay. To be noted: read-out: EC50.

The target in another assay is T2, Progesterone receptor (Homo sapiens, UniProt P06401).
T2 sequence (P06401 whole entry): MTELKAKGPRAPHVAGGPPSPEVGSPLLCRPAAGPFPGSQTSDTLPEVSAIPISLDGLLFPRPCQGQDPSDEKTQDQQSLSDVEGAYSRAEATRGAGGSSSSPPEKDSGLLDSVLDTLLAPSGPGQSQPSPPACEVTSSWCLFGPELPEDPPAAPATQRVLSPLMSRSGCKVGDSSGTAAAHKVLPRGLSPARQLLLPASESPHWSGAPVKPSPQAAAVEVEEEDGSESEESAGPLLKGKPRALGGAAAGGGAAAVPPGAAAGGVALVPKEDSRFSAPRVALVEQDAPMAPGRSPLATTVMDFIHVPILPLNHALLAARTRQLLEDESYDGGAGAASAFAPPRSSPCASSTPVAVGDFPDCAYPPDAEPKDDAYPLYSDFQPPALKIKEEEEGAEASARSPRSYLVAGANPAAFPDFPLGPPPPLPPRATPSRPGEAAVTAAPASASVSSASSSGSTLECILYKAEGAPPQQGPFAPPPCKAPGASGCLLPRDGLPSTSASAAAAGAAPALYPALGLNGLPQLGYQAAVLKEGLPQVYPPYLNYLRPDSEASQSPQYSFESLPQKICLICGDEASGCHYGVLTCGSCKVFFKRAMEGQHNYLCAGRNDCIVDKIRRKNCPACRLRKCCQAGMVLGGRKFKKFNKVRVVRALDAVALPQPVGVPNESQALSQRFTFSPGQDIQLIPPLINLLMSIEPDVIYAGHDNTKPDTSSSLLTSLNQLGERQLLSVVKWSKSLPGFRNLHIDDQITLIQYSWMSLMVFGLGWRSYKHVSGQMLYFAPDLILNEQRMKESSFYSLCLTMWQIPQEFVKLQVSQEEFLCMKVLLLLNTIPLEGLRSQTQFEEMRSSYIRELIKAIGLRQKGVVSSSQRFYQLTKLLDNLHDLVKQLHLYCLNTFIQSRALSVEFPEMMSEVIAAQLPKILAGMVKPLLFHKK
Description: Agonist activity at progesterone receptor-LBD expressed in HEK293 cells assessed as Gal4-DBD interaction by cellular mammalian one hybrid assay.

Assay [1] concerns the target T3, Peroxisome proliferator-activated receptor delta (Homo sapiens, UniProt Q03181).
T3 sequence (Q03181 whole entry): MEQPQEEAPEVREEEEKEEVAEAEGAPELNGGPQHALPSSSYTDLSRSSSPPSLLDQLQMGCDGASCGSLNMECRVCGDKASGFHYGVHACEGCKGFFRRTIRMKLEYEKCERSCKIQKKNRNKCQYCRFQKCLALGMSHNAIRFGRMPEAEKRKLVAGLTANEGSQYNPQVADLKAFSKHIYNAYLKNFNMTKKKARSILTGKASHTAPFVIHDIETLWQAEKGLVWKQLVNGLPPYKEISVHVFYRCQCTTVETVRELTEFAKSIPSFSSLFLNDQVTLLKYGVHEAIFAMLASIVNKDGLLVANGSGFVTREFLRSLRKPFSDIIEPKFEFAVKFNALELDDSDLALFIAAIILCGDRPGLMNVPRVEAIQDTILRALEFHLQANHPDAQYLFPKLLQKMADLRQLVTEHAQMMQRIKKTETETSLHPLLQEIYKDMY
Nature of the assay: Agonist activity at PPAR-beta/delta-LBD expressed in HEK293 cells assessed as Gal4-DBD interaction by cellular mammalian one hybrid assay.

For assay [2], the target named is T4, Retinoic acid receptor RXR-alpha (Homo sapiens, UniProt P19793).
T4 sequence (P19793 whole entry): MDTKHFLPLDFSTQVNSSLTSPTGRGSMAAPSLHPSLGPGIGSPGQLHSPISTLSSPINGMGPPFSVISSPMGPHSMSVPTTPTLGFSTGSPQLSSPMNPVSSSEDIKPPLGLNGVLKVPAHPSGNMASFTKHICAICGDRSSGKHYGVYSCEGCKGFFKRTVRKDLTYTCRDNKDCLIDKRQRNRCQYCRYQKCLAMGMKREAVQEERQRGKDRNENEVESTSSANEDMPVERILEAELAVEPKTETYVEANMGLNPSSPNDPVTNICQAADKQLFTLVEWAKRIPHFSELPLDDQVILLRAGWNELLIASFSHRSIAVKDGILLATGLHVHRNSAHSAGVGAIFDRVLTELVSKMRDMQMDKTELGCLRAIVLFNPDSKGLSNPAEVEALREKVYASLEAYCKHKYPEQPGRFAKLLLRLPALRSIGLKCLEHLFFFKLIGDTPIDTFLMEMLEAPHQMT
Description: Agonist activity at RXRalpha-LBD expressed in HEK293 cells assessed as Gal4-DBD interaction by cellular mammalian one hybrid assay.

Assay [3] concerns the target T5, Progesterone receptor (Homo sapiens) (UniProt P06401).
T5 sequence (whole entry): T2 sequence (P06401 whole entry)
Description: Agonist activity at progesterone receptor-LBD expressed in HEK293 cells assessed as Gal4-DBD interaction by cellular mammalian one hybrid assay relative to progesterone.

Consider `CC(C)c1onc(-c2c(Cl)cccc2Cl)c1COc1ccc(N(C)Cc2ccc(C(=O)O)cc2)c(C(F)(F)F)n1`, for which the 50% effective concentration (EC50) on Bile acid receptor was 15 nM; on Progesterone receptor, more than 10 µM; in assay [1] it was more than 10 µM; in assay [2], more than 10 µM. Moreover, the Efficacy in assay [3] came to 0%.

With `CN(Cc1cccc(C(=O)O)c1)c1ccc(OCc2c(-c3c(Cl)cccc3Cl)noc2C2CC2)nc1C(F)(F)F`, the EC50 on Bile acid receptor was 2 nM; at Progesterone receptor it was more than 10 µM; in assay [1], more than 10 µM; in assay [2], more than 10 µM. The Efficacy in assay [3] was 0%.

For the compound `CN(Cc1ccc(C(=O)O)cc1)c1ccc(OCc2c(-c3c(Cl)cccc3Cl)noc2C2CC2)nc1C(F)(F)F`, the EC50 on Bile acid receptor was 6 nM; at Progesterone receptor, more than 10 µM; in assay [1], more than 10 µM; in assay [2] it was more than 10 µM. In assay [3], the Efficacy turned out to be 0%.
